{"source": "patent US5885968A", "about": "“Triantennary cluster glycosides, their preparation and use” (Rijksuniversiteit te Leiden, priority 1992, dated 1999)", "key": {"rats [1]": {"tested_on": "rats", "test": "Biliary secretion in catheterized rats after intravenous injection", "type": "in vivo, rat", "conditions": "0.56 mg i.v., FIG. 5", "protocol": "Intravenous injection of TG(20 Å)C (0.56 mg, dissolved in phosphate buffered saline) in rats, provided with catheters in duodenum, bile-duct and heart vene, also enhances the biliary secretion of bile acids from the liver leaving the biliary flow and the biliary secretion of cholesterol unaltered. Apparently, the TG(20 Å)C-induced increase in the uptake of lipoprotein-derived cholesterol is efficiently coupled to bile-acid secretion in rats. This might have important implications for potential application of TG(20 Å)C as a hypocholesterolemic therapeutic. (See FIG. 5.)"}, "rats [2]": {"tested_on": "rats", "test": "In vivo fate of lipoprotein (a) charged with glycolipid in rats", "set-up": "species or system rat", "description": "The so prepared TG(20 Å)-chol (formula 20): [drawing 24] can also be used to direct apo(a) to the hepatic parenchymal cell. High levels of lp(a) are correlated with the occurence of coronary and vascular diseases. To date, an adequate clinical therapy to alleviate the pathogenesis is not available. To investigate whether TG(20 Å)C can be used to stimulate the hepatic uptake and processing of lp(a) this, isolated lp(a) was charged with TG(20 Å)-chol according to a procedure that is known per se and the in vivo behaviour of the particle was studied. Lp(a) (50 μg) in PBS was incubated at 20° C. for 30 min with 0, 5, 15 and 50 μg TG(20 Å) (-chol). This charge led to a changed behaviour of the apo(a) after intravenous injection into rats. This is illustrated in FIG. 8. […] On account of the high […] of TG(20 Å)-chol, very rapidly an exchange of this compound occurs between lp(a) and other lipoproteins and lipid compartments. This then leads to a stabilization of the lp(a) level in the bloodstream after a few minutes.\n^125 I-Lp(a) (50 μg) was mixed with 50 μg of TG(20 Å)C or TG(4 Å)C in 500 μl PBS. After 30 min at room temperature, the mixtures were injected into rats at a dose of 50 μg of apolipoprotein/kg body weight. Ten minutes after injection, parenchymal, endothelial and Kupffer cells were isolated from the liver and counted for radioactivity. Values are expressed as 10-3.% of the injected dose per mg of cellular protein and are means of 3 experiments ± s.e.m."}, "rats [3]": {"tested_on": "rats", "test": "Serum cholesterol lowering after intravenous injection in rats", "type": "in vivo, rat", "protocol": "This was verified as follows. Male rats (250-300 g) were anesthetized by means of ether, whereafter 500 gl PBS, having dissolved therein 0.56 mg, 0.18 mg, 0.056 mg or 0 mg TG(20 Å)-chol (formula 20) or 0.56 mg tris-glu-chol (formula 21): [drawing 19] was injected into the vena penis. At the times indicated in FIG. 3, blood samples of 300 μl were taken by means of orbital puncture. The blood samples were centrifuged (5 min; 1500 g) and the serum was used for a cholesterol assay by means of the CHOD-PAP kit of Boehringer Mannheim. 24 Hours after injection the rat was bled. The blood was centrifuged whereafter the serum was pipeted. Then the serum was subjected to gradient density ultracentrifugation and the various lipoprotein fractions were isolated: HDL (1.21<d<1.05), LDL (1.050<d<1.019), IDL (1.019<d<1.006) and VLDL (d<1.006). Finally, the total cholesterol concentrations of these lipoprotein fractions were assayed by means of the CHOD-PAP kit."}, "rats [4]": {"tested_on": "rats", "test": "In vivo behaviour of LDL charged with glycolipid after intravenous injection into rats", "set-up": "species or system rat", "description": "The so prepared compound TG(20 Å)-chol (formula 20): [drawing 22] can also be used to direct LDL to the hepatic parenchymal cell. To investigate this, isolated low-density lipoprotein was charged with TG(20 Å)-chol according to a procedure that is known per se and the in vivo behaviour of the particle was studied. […] This then leads to a stabilization of the LDL level in the bloodstream after a few minutes. Accumulation of TG(20 Å)-chol in LDL, then, changes the physiological rate of LDL. The complex is taken up by the liver via a galactose-specific route. […] Now it can be verified whether the complex is taken up by the parenchymal or by the Kupffer cell on the liver. […] This is an indication that charging with this compound leads to liver uptake via the asialoglycoprotein receptor in the parenchymal cell."}, "[5]": {"conditions": "125I-Lp(a) 50 μg + 50 μg glycolipid, rats, 10 min after injection, mean ± s.e.m., 3 experiments"}}, "data": [{"compound": "CC(C)CCC[C@@H](C)[C@H]1CC[C@H]2[C@@H]3CC=C4C[C@@H](OC(=O)CNC(=O)CCCCC(=O)NCC(=O)NC(COCOCCOCCOCCOCCO[C@@H]5O[C@H](CO)[C@H](O)[C@H](O)[C@H]5O)(COCOCCOCCOCCOCCO[C@@H]5O[C@H](CO)[C@H](O)[C@H](O)[C@H]5O)COCOCCOCCOCCOCCO[C@@H]5O[C@H](CO)[C@H](O)[C@H](O)[C@H]5O)CC[C@]4(C)[C@H]3CC[C@]12C", "note": "[TG(20 Å)-chol, N,N-[tris-O-(3,6,9-trioxaundecanyl-β-D-galactopyranosyl)methoxymethyl]methyl-N^α -(1-(6-(5-cholesten-3β-yloxy)glycyl)adipyl)glycinamide]", "values": [{"measurement": "Biliary flow", "setting": "rats [1]", "result": "unaltered"}, {"measurement": "Biliary secretion of bile acids", "setting": "rats [1]", "result": "enhances"}, {"measurement": "Biliary secretion of cholesterol", "setting": "rats [1]", "result": "unaltered"}, {"measurement": "Effect of N-acetyl-galactosamine preinjection on induced hepatic uptake of 125I-lp(a)", "setting": "rats [2]; 150 mg N-acetyl-galactosamine, rat, data not shown", "result": "can be inhibited"}, {"measurement": "Contribution to hepatic uptake of Lp(a), EC (endothelial cells)", "setting": "rats [2]; [5]", "result": "8.3 ± 2", "unit": "%"}, {"measurement": "Contribution to hepatic uptake of Lp(a), KC (Kupffer cells)", "setting": "rats [2]; [5]", "result": "37.3 ± 9", "unit": "%"}, {"measurement": "Clearance from bloodstream and liver uptake of charged apo(a)/lp(a) particles", "setting": "rats [2]; Lp(a) 50 μg charged with 5, 15, 50 μg, i.v. rats, FIG. 8", "result": "cleared and incorporated into the liver much faster"}, {"measurement": "Cholesterol level 24 hours after single administration", "setting": "rats [3]; 0.56 mg, 24 hours", "result": "has not returned to the control value"}, {"measurement": "LDL level", "setting": "rats [3]; 24 h after injection", "result": "likewise lowered"}, {"measurement": "Concentrations of the other lipoproteins", "setting": "rats [3]; 24 h after injection (IDL, VLDL)", "result": "not significantly affected"}, {"measurement": "Serum HDL level", "setting": "rats [3]; 24 h after injection, FIG. 4", "result": "decreases dose-dependently and significantly"}, {"measurement": "Total serum cholesterol level", "setting": "rats [3]; injection into vena penis, 0.056-0.56 mg, FIG. 3", "result": "decreases"}, {"measurement": "Increase in potency compared with tris-gal-chol", "setting": "rats [3]; serum cholesterol lowering, comparison with ref 15", "result": "≥ 25", "unit": "factor"}, {"measurement": "Effect of asialofetuin preinjection on uptake of charged LDL", "setting": "rats [4]; 50 mg/kg asialofetuin 1 min before injection", "result": "significant inhibition of the uptake by the liver parenchymal cell"}, {"measurement": "Clearance from bloodstream and liver uptake of charged 125I-LDL", "setting": "rats [4]; LDL 50 μg charged with 5, 15, 50 μg, i.v. rats, FIG. 6", "result": "cleared and incorporated into the liver much faster"}, {"measurement": "Liver cell type location of charged LDL taken up", "setting": "rats [4]; rats, FIG. 7", "result": "largely located in the parenchymal cell"}]}]}
